Assay results reported in patent US9828375B2, “4-position substituted pyrazolopyrimidine derivative, and use thereof in drug preparation” (Guangxi Wuzhou Pharmaceuticals (Group) Co., Ltd., priority 2012, dated 2017).

Experiments:
Format in all cases: biochemical
VEGFR2 = VEGFR2 (Homo sapiens, UniProt P35968); experiment: Kinase inhibition activity test, isotope labeling (γ-33P-ATP): VEGFR2; conditions: for IC50: ATP 90 μM, read-out: VEGFR2 IC50 value (inhibitory activity value); for Activity inhibition rate VEGFR2 (h) / inhibition at 10 µM: test compound at a concentration of 10 μM; for inhibition at 10 µM: read-out: Activity inhibition rate VEGFR2 (h)
VEGFR2, sequence (P35968 20-1356): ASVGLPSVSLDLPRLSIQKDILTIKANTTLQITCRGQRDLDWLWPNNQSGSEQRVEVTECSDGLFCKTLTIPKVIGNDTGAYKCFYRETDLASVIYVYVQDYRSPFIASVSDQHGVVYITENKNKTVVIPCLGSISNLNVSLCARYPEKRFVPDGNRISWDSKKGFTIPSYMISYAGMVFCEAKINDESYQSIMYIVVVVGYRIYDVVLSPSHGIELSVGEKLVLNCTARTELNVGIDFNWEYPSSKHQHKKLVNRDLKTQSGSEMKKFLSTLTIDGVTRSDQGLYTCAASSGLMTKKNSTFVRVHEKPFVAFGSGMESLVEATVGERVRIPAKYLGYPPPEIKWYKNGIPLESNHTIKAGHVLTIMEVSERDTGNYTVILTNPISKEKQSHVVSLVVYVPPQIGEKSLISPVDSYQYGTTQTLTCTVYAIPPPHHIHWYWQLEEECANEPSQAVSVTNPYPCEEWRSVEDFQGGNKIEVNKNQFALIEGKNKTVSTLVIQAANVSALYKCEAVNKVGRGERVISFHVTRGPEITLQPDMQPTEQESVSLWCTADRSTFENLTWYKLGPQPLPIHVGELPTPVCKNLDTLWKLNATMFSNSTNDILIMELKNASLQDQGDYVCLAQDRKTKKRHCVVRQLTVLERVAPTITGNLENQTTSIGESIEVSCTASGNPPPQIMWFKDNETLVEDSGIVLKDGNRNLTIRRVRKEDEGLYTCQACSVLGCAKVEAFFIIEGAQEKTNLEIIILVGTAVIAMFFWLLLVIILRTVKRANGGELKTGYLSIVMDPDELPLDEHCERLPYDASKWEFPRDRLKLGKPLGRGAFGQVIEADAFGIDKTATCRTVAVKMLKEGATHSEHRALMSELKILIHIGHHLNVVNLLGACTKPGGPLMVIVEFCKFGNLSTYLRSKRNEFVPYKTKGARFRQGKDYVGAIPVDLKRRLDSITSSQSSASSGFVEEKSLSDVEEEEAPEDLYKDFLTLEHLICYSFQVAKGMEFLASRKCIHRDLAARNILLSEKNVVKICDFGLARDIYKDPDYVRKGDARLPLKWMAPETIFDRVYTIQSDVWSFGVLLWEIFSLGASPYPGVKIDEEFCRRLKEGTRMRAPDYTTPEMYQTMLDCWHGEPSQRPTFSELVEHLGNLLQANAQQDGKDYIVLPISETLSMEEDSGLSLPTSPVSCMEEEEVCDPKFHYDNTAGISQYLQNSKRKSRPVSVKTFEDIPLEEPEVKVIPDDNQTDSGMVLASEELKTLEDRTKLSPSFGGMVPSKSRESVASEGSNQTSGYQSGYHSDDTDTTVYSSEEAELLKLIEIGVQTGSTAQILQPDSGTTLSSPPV
Description: (§1) The purpose of this experiment was to test the inhibitory activity of the compound of the invention for in vitro kinase with the isotope labeling method (the γ phosphate group on ATP was labeled). In this experiment, the in vitro activity inhibition of such kinases as FLT3, VEGFR2, FLT1, FLT4, RET, c-RAF, B-RAF, c-KIT, PDGFα, PDGFβ, FGFR2, FGFR1, EphA2, EphB2, SRC, ABL, ALK and Met was tested respectively. Staurosporine was reference molecule (or referred to as positive control). The kinase inhibition activity of the test compound was expressed by half-inhibitory concentration (IC50) or the kinase activity inhibition rate of the test compound at a concentration of 10 μM. The IC50 value could be obtained by calculating the kinase activity inhibition rate of the test compound at different concentrations.
(§2) 20 mM 3-(N-morpholinyl)propanesulfonic acid (MOPS); 1 mM ethylenediaminetetraacetic acid (EDTA), 0.01% Brij 35 (Brij-35), 5% glycerol, 0.1% mercaptoethanol, 1 mg/mL bovine serum albumin (BSA), 10 mM manganous dichloride solution (MnCl2), 0.1 mg/mL glutamic acid/tyrosine (4:1) polypeptide (poly(Glu, Tyr)4:1), 50 μM EAIYAAPFAKKK (substrate of FLT3), 0.33 mg/mL myelin basic protein (substrate of VEGFR2), 250 μM KKKSPGEYVNIEFG (substrate of FLT1(h)), 500 μM GGEEEEYFELVKKKK (substrate of FLT4(h)), 250 μM KKKSPGEYVNIEFG (substrate of RET), 0.66 mg/mL myelin basic protein (substrate of C-RAF), 250 μM GGMEDIYFEFMGGKKK (substrate of c-Kit), 250 μM GGMEDIYFEFMGGKKK (substrate of PDGFα), 250 μM KKKSPGEYVNIEFG (substrate of FGFR1), […] GGEEEEYFELVKKKK (substrate of SRC), 50 μM EAIYAAPFAKKK (substrate of ABL), 250 μM KKKSPGEYVNIEFG (substrate of ALK), 250 μM KKKSPGEYVNIEFG (substrate of Met(h)), 10 mM magnesium acetate and γ-^33 P-ATP solution, stop buffer (3% phosphate buffer), washing buffer (75 mM phosphate solution), methanol, Filtermat A membrane, FLT3, VEGFR2, FLT3, VEGFR2, FLT1, FLT4, RET, c-RAF, B-RAF, c-KIT, PDGFRα, PDGFRβ, FGFR2, FGFR1, EphA2, EphB2, SRC, ABL, ALK, Met and other kinases, and the test compounds.
(§3) Buffers (8 mM MOPS with pH value of 7.0, 0.2 mM EDTA and 10 mM MnCl2), (5-10 mU) kinases to be tested (FLT3, VEGFR2, FLT1, FLT4, RET, c-RAF, B-RAF, c-KIT, PDGFRα, PDGFRβ, FGFR2, FGFR1, EphA2, EphB2, SRC, ABL, ALK and Met), substrates of kinases to be tested (refer to experimental materials), 10 mM magnesium acetate and γ-^33 P-ATP solution, and test compounds at different concentrations were added to a reaction tube orderly. […] Reaction was terminated with 5 μL 3% phosphate buffer finally, and 10 μL reaction solution was titrated to the Filtermat A membrane; solution was washed for 3 times with 75 mM phosphate solution with each time lasting 5 minutes, and then washed once with methanol. Finally, the Filtermat A membrane was dried, and scintillation counting was performed on the membrane, with scintillation count reflecting the phosphorylation degree of the substrates, so that the activity inhibition of kinase could be characterized.

PDGFRα = PDGFRα (Homo sapiens, UniProt P16234); experiment: Kinase inhibition activity test, isotope labeling: PDGFRα; conditions: for IC50: ATP 120 μM, read-out: PDGFRα IC50 value (inhibitory activity value); for Activity inhibition rate PDGFRα (h) / inhibition at 10 µM: test compound at a concentration of 10 μM; for inhibition at 10 µM: read-out: Activity inhibition rate PDGFRα (h)
PDGFRα, sequence (P16234 24-1089): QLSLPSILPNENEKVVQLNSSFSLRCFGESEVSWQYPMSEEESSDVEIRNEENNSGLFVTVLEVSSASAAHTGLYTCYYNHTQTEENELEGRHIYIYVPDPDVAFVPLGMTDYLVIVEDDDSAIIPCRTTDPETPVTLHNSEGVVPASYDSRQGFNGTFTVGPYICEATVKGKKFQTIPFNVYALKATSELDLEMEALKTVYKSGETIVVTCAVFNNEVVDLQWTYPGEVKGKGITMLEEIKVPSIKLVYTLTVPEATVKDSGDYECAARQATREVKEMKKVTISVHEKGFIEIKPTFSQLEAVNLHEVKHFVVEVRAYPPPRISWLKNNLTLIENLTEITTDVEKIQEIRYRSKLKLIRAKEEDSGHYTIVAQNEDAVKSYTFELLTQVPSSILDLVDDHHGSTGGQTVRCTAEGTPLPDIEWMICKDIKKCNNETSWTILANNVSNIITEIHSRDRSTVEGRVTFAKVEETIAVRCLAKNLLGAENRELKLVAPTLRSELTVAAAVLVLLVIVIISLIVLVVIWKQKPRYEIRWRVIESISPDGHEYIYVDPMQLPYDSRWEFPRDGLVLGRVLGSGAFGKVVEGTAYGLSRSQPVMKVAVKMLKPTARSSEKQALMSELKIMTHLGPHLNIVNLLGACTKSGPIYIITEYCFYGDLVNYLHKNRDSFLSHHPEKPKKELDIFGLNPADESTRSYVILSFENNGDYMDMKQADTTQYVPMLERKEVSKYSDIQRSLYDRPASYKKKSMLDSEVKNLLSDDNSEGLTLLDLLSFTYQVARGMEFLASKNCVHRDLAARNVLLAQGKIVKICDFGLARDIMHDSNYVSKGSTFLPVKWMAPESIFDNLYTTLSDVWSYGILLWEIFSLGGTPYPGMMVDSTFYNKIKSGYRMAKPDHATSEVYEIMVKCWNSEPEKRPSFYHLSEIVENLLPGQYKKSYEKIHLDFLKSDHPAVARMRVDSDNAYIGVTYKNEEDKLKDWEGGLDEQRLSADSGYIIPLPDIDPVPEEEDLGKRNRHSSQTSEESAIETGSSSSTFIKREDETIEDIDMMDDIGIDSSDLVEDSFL
Description: as §1, §2, §3

FLT3 = target: T1, FLT3 (Homo sapiens, UniProt P36888); experiment: Kinase inhibition activity test, isotope labeling (γ-33P-ATP): FLT3; conditions: for IC50: ATP 200 μM, read-out: FLT3 IC50 value (inhibitory activity value); for Activity inhibition rate Flt3 (h) / inhibition at 10 µM: test compound at a concentration of 10 μM; for inhibition at 10 µM: read-out: Activity inhibition rate Flt3 (h)
T1 sequence (P36888 27-993): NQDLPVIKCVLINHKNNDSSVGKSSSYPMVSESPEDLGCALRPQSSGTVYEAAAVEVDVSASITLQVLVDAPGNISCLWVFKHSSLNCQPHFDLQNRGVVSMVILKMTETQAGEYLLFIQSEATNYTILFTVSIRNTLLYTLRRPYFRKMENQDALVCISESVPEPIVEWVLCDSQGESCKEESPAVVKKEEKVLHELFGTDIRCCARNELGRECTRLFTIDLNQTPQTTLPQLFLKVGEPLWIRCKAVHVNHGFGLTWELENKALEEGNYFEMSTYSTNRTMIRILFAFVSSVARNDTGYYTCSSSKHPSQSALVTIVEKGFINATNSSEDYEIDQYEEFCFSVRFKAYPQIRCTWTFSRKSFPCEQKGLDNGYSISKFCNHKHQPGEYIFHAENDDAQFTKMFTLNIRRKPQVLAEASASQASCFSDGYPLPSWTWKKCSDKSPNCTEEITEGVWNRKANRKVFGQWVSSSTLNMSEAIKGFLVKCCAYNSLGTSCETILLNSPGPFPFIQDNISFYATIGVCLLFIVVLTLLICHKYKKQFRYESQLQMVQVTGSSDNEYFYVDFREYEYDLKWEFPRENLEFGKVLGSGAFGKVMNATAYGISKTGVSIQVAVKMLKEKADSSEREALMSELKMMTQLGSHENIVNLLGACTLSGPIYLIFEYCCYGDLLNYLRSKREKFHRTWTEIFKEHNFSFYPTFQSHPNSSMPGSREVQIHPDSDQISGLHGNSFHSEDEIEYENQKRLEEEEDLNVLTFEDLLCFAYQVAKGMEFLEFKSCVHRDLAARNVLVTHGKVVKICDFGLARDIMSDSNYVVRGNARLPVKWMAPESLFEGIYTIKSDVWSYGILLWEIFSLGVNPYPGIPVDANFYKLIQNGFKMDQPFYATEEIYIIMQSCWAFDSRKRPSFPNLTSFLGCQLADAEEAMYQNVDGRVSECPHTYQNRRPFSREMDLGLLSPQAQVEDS
Description: as §1, §2, §3

Molecule | IC50 (VEGFR2) [nM] | Activity inhibition rate VEGFR2 (h) (VEGFR2) [%] | IC50 (PDGFRα) [nM] | Activity inhibition rate PDGFRα (h) (PDGFRα) [%] | IC50 (FLT3) [nM] | Activity inhibition rate Flt3 (h) (FLT3) [%] | Activity inhibition rate VEGFR2 (h) (VEGFR2; 10 µM) [%] | Activity inhibition rate Flt3 (h) (FLT3; 10 µM) [%] | inhibition at 10 µM (VEGFR2) [%] | inhibition at 10 µM (PDGFRα) [%] | inhibition at 10 µM (FLT3) [%]
O=C(Nc1ccc(Oc2ncnc3[nH]ncc23)cc1)Nc1ccc(C(F)(F)F)cc1Cl [4a-13] | 37 | 100 | – | 63 | 24 | 100 | – | – | – | – | –
C[C@H](NC(=O)Nc1ccc(Nc2ncnc3[nH]ncc23)cc1)c1ccccc1 [4b-4] | – | – | – | >30 | – | – | 94 | 59 | – | – | –
1-(4-((1H-pyrazolopyrimidine-4-yl)oxy)-3-fluorophenyl)-3-(3-trifluoromethoxy)phenyl)urea [4a-8] | 29 | 100 | – | 64 | 38 | 100 | – | – | – | – | –
O=C(Nc1ccc(Sc2ncnc3[nH]ncc23)cc1)Nc1ccc(C(F)(F)F)cc1 [4c-1] | – | – | – | – | – | – | – | – | 100 | > 50 | > 90
COc1ccc(NC(=O)Nc2ccc(NC(=O)N3C=NC=C4NNC=C43)cc2)cc1 [4b-6, 1-(4-(1H-pyrazolopyrimidine-4-amido)phenyl)-3-(4-methoxyphenyl)urea] | – | – | – | – | – | – | – | – | 95 | > 30 | 81

Second part, the molecule after the results:

IC50 (VEGFR2) [nM] | Activity inhibition rate VEGFR2 (h) (VEGFR2) [%] | IC50 (PDGFRα) [nM] | Activity inhibition rate PDGFRα (h) (PDGFRα) [%] | IC50 (FLT3) [nM] | Activity inhibition rate Flt3 (h) (FLT3) [%] | Activity inhibition rate VEGFR2 (h) (VEGFR2; 10 µM) [%] | Activity inhibition rate Flt3 (h) (FLT3; 10 µM) [%] | inhibition at 10 µM (VEGFR2) [%] | inhibition at 10 µM (PDGFRα) [%] | inhibition at 10 µM (FLT3) [%] | Molecule
12 | 100 | 1400 | >50 | 16 | 100 | – | – | – | – | – | CC(C)(C)c1cc(NC(=O)Nc2ccc(Oc3ncnc4[nH]ncc34)cc2)on1 [4a-25]
28 | 100 | – | 48 | 89 | 100 | – | – | – | – | – | O=C(Nc1ccccc1)Nc1ccc(Oc2ncnc3[nH]ncc23)cc1 [4a-15, 1-(4-((1H-pyrazolopyrimidine-4-yl)oxy)phenyl)-3-phenylurea]
12 | 100 | 223 | 93 | 39 | 100 | – | – | – | – | – | O=C(Nc1ccc(Oc2ncnc3[nH]ncc23)cc1)Nc1ccc(Cl)c(C(F)(F)F)c1 [4a-2]
21 | 100 | – | 52 | 25 | 100 | – | – | – | – | – | O=C(Nc1ccc(Oc2ncnc3[nH]ncc23)c(F)c1)Nc1ccc(Cl)c(C(F)(F)F)c1 [4a-10, 1-(4-((1H-pyrazolopyrimidine-4-yl)oxy)-3-fluorophenyl)-3-(4-chloro-3-(trifluoromethyl)phenyl)urea]
24 | 100 | – | 52 | 61 | 100 | – | – | – | – | – | O=C(Nc1ccc(Oc2ncnc3[nH]ncc23)cc1)Nc1cc(C(F)(F)F)cc(C(F)(F)F)c1 [4a-12, 1-(4-((1H-pyrazolopyrimidine-4-yl)oxy)phenyl)-3-(3,5-bis(trifluoromethyl)phenyl)urea]
